Assay results from the supplement of paper PMC11208160.

Assay: recombinant UMI read abundance after kanamycin selection (control-corrected) (log10(CPM+1)); higher = more efficient recombination; extreme values may be limits of the assay; sequences stand for … in AGTGCAGAGAAAATCGGCCAGTTTTCTCTGCCTGCAGTCCGCATGCCGTGGGACCCCTTGGGTTCTAACCTGTTGCCTAGATTTATGCAGCGGACTGCCTTTCTCCCAAAGTGATAAACCGG…AGGTTGGTTTCACT; site = the 11-nt donor
How it was run: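 For the IS621 bridge recombinase, a pooled Escherichia coli screen tested donor and donor-binding-loop pairs. Cells received the pair library together with a target plasmid encoding a fixed target and T7-inducible recombinase, then went onto IPTG (0.07 mM) plus kanamycin or unselected plates in duplicate. After PCR across the donor–target junction and sequencing, recombinant UMI counts were normalized to CPM, averaged, and scaled by control-derived factors. Each value is given as log10(CPM+1).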
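Further: IS621 bridge recombinase in Escherichia coli cells against a fixed T5 target plasmid.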

“CCGTTTACATGGACCGGTTTTCCCGGTAATCCGTATTTGCT (site CGGTTTACTAG)” and “CCGTTTACATGGACCGGTTTTCCCGGTAATCCGTATTTGCT (site CTGTTTACTAG)” are the same in “recombinant UMI read abundance (log10)” value: 0 for the first, 0 for the second.

“CCGTTTACATGGACCGGTTTTCCCGGTAATCCGTATTTGCT (site GCGTTTACTAG)” and “CCGTTTACATGGACCGGTTTTCCCGGTAATCCGTATTTGCT (site TCGTTTACTAG)” are the same in “recombinant UMI read abundance (log10)” value: 0 for the first, 0 for the second.

“CCGTTTCCATGGACCGGTTTTCCCGGTAATCCGTATTTGCT (site CCGTTTACTAG)” and “CCGTTTCCATGGACCGGTTTTCCCGGTAATCCGTATTTGCT (site CCGTTTCCTAG)” are the same in “recombinant UMI read abundance (log10)” value: 0 for the first, 0 for the second.

“CCGTTTCCATGGACCGGTTTTCCCGGTAATCCGTATTTGCT (site CCGTTTGCTAG)” and “CCGTTTCCATGGACCGGTTTTCCCGGTAATCCGTATTTGCT (site CCGTTTTCTAG)” are the same in “recombinant UMI read abundance (log10)” value: 0 for the first, 0 for the second.

“CCTAAAACATGGACCGGTTTTCCCGGTAATCCGTATTTGAT (site CCTAAAACTAT)” and “CCTAAAACATGGACCGGTTTTCCCGGTAATCCGTATTTGAT (site CCTAAACCTAT)” are within 0.2 log units of each other in “recombinant UMI read abundance (log10)” value: 0 for the first, 0.00551 for the second.

“CCTAAAACATGGACCGGTTTTCCCGGTAATCCGTATTTGAT (site CCTAAAGCTAT)” and “CCTAAAACATGGACCGGTTTTCCCGGTAATCCGTATTTGAT (site CCTAAATCTAT)” are within 0.2 log units of each other in “recombinant UMI read abundance (log10)” value: 0.00636 for the first, 0 for the second.

“CCTAAAACATGGACCGGTTTTCCCGGTAATCCGTATTTGGC (site CCTAAAACTGC)” and “CCTAAAACATGGACCGGTTTTCCCGGTAATCCGTATTTGGC (site CCTAACACTGC)” are the same in “recombinant UMI read abundance (log10)” value: 0 for the first, 0 for the second.

“CCTAAAACATGGACCGGTTTTCCCGGTAATCCGTATTTGGC (site CCTAAGACTGC)” and “CCTAAAACATGGACCGGTTTTCCCGGTAATCCGTATTTGGC (site CCTAATACTGC)” are the same in “recombinant UMI read abundance (log10)” value: 0 for the first, 0 for the second.

“CCTAAAGCATGGACCGGTTTTCCCGGTAATCCGTATTTGGT (site CCTAAAGCTAA)” and “CCTAAAGCATGGACCGGTTTTCCCGGTAATCCGTATTTGGT (site CCTAAAGCTAC)” are within 0.2 log units of each other in “recombinant UMI read abundance (log10)” value: 0.00229 for the first, 0 for the second.

“CCTAAAGCATGGACCGGTTTTCCCGGTAATCCGTATTTGGT (site CCTAAAGCTAG)” and “CCTAAAGCATGGACCGGTTTTCCCGGTAATCCGTATTTGGT (site CCTAAAGCTAT)” are the same in “recombinant UMI read abundance (log10)” value: 0 for the first, 0 for the second.

“CCTAATACATGGACCGGTTTTCCCGGTAATCCGTATTTGAC (site CCTAATACTGA)” and “CCTAATACATGGACCGGTTTTCCCGGTAATCCGTATTTGAC (site CCTAATACTGC)” are the same in “recombinant UMI read abundance (log10)” value: 0 for the first, 0 for the second.

“CCTAATACATGGACCGGTTTTCCCGGTAATCCGTATTTGAC (site CCTAATACTGG)” and “CCTAATACATGGACCGGTTTTCCCGGTAATCCGTATTTGAC (site CCTAATACTGT)” are the same in “recombinant UMI read abundance (log10)” value: 0 for the first, 0 for the second.

“CCTAATTCATGGACCGGTTTTCCCGGTAATCCGTATTTGGC (site CCTAATACTGC)” and “CCTAATTCATGGACCGGTTTTCCCGGTAATCCGTATTTGGC (site CCTAATCCTGC)” are the same in “recombinant UMI read abundance (log10)” value: 0 for the first, 0 for the second.

“CCTAATTCATGGACCGGTTTTCCCGGTAATCCGTATTTGGC (site CCTAATGCTGC)” and “CCTAATTCATGGACCGGTTTTCCCGGTAATCCGTATTTGGC (site CCTAATTCTGC)” are the same in “recombinant UMI read abundance (log10)” value: 0 for the first, 0 for the second.

“CCTAGAACATGGACCGGTTTTCCCGGTAATCCGTATTTGAG (site ACTAGAACTCT)” and “CCTAGAACATGGACCGGTTTTCCCGGTAATCCGTATTTGAG (site CCTAGAACTCT)” are within 0.2 log units of each other in “recombinant UMI read abundance (log10)” value: 0.00253 for the first, 0.00591 for the second.

“CCTAGAACATGGACCGGTTTTCCCGGTAATCCGTATTTGAG (site GCTAGAACTCT)” and “CCTAGAACATGGACCGGTTTTCCCGGTAATCCGTATTTGAG (site TCTAGAACTCT)” are within 0.2 log units of each other in “recombinant UMI read abundance (log10)” value: 0.0133 for the first, 0.00636 for the second.

First: CCTAGAGCATGGACCGGTTTTCCCGGTAATCCGTATTTGTT (site CCTAGAGCTAA)
Second: CCTAGGTCATGGACCGGTTTTCCCGGTAATCCGTATTTGCC (site CCTAGGTCTGG)
The “recombinant UMI read abundance (log10)” value of the first is higher: 0.633 for the first, 0 for the second.

First: CCTAGTGCATGGACCGGTTTTCCCGGTAATCCGTATTTGGT (site ACTAGTGCTAC)
Second: CCTAGTGCATGGACCGGTTTTCCCGGTAATCCGTATTTGGT (site CCTAGTGCTAC)
The “recombinant UMI read abundance (log10)” value of the first is lower: 0.00584 for the first, 0.533 for the second.

“CCTAGTGCATGGACCGGTTTTCCCGGTAATCCGTATTTGGT (site GCTAGTGCTAC)” and “CCTAGTGCATGGACCGGTTTTCCCGGTAATCCGTATTTGGT (site TCTAGTGCTAC)” are within 0.2 log units of each other in “recombinant UMI read abundance (log10)” value: 0.0365 for the first, 0.0125 for the second.

“CCTATATCATGGACCGGTTTTCCCGGTAATCCGTATTTGTC (site CCAATATCTGA)” and “CCTATATCATGGACCGGTTTTCCCGGTAATCCGTATTTGTC (site CCCATATCTGA)” are within 0.2 log units of each other in “recombinant UMI read abundance (log10)” value: 0 for the first, 0.00678 for the second.

“CCTATATCATGGACCGGTTTTCCCGGTAATCCGTATTTGTC (site CCGATATCTGA)” and “CCTATATCATGGACCGGTTTTCCCGGTAATCCGTATTTGTC (site CCTATATCTGA)” are the same in “recombinant UMI read abundance (log10)” value: 0 for the first, 0 for the second.

“CCTCACACATGGACCGGTTTTCCCGGTAATCCGTATTTGTA (site CCACACACTTA)” and “CCTCACACATGGACCGGTTTTCCCGGTAATCCGTATTTGTA (site CCCCACACTTA)” are within 0.2 log units of each other in “recombinant UMI read abundance (log10)” value: 0 for the first, 0.0116 for the second.

“CCTCACACATGGACCGGTTTTCCCGGTAATCCGTATTTGTA (site CCGCACACTTA)” and “CCTCACACATGGACCGGTTTTCCCGGTAATCCGTATTTGTA (site CCTCACACTTA)” are within 0.2 log units of each other in “recombinant UMI read abundance (log10)” value: 0.0283 for the first, 0.166 for the second.

Going from “CCTCGAGCATGGACCGGTTTTCCCGGTAATCCGTATTTGTG (site CCTCGAGCTCA)” to “CCTCTTGCATGGACCGGTTTTCCCGGTAATCCGTATTTGAG (site CCTCTTGCTCT)”, the “recombinant UMI read abundance (log10)” value falls from 0.234 to 0.0146.

Going from “CCTCTTTCATGGACCGGTTTTCCCGGTAATCCGTATTTGAG (site CCTCTTTCTCT)” to “CCTGAAGCATGGACCGGTTTTCCCGGTAATCCGTATTTGAT (site CCTAAAGCTAT)”, the “recombinant UMI read abundance (log10)” value rises from 0.00323 to 0.231.

First: CCTGAAGCATGGACCGGTTTTCCCGGTAATCCGTATTTGAT (site CCTCAAGCTAT)
Second: CCTGAAGCATGGACCGGTTTTCCCGGTAATCCGTATTTGAT (site CCTGAAGCTAT)
The “recombinant UMI read abundance (log10)” value of the first is lower: 0 for the first, 0.209 for the second.

“CCTGAAGCATGGACCGGTTTTCCCGGTAATCCGTATTTGAT (site CCTTAAGCTAT)” and “CCTGATACATGGACCGGTTTTCCCGGTAATCCGTATTTGGC (site CCTAATACTGC)” are the same in “recombinant UMI read abundance (log10)” value: 0 for the first, 0 for the second.

“CCTGATACATGGACCGGTTTTCCCGGTAATCCGTATTTGGC (site CCTCATACTGC)” and “CCTGATACATGGACCGGTTTTCCCGGTAATCCGTATTTGGC (site CCTGATACTGC)” are the same in “recombinant UMI read abundance (log10)” value: 0 for the first, 0 for the second.

“CCTGATACATGGACCGGTTTTCCCGGTAATCCGTATTTGGC (site CCTTATACTGC)” and “CCTGCACCATGGACCGGTTTTCCCGGTAATCCGTATTTGGA (site CCTGCACCTTC)” are within 0.2 log units of each other in “recombinant UMI read abundance (log10)” value: 0 for the first, 0.00678 for the second.

“CCTGCTACATGGACCGGTTTTCCCGGTAATCCGTATTTGCG (site CCTGCTACTCG)” and “CCTGGCACATGGACCGGTTTTCCCGGTAATCCGTATTTGAA (site CCTGGCACTTT)” are within 0.2 log units of each other in “recombinant UMI read abundance (log10)” value: 0.0136 for the first, 0.0111 for the second.

First: CCTGGTGCATGGACCGGTTTTCCCGGTAATCCGTATTTGTA (site CCTGGTGCTTA)
Second: CCTGTAGCATGGACCGGTTTTCCCGGTAATCCGTATTTGAG (site CCTGTAGCTCT)
The “recombinant UMI read abundance (log10)” value of the first is higher: 0.698 for the first, 0.443 for the second.

“CCTGTATCATGGACCGGTTTTCCCGGTAATCCGTATTTGCA (site ACAGTATCTTG)” and “CCTGTATCATGGACCGGTTTTCCCGGTAATCCGTATTTGCA (site CCTGTATCTTG)” are the same in “recombinant UMI read abundance (log10)” value: 0 for the first, 0 for the second.

Compared with “CCTGTCGCATGGACCGGTTTTCCCGGTAATCCGTATTTGAG (site CCTGTCGCTCT)”, “CCTGTGGCATGGACCGGTTTTCCCGGTAATCCGTATTTGTA (site CCTGTGGCTTA)” is lower in “recombinant UMI read abundance (log10)” value: 0.909 for the first, 0.327 for the second.

“CCTTAAGCATGGACCGGTTTTCCCGGTAATCCGTATTTGAT (site CCTAAAGCTAT)” and “CCTTAAGCATGGACCGGTTTTCCCGGTAATCCGTATTTGAT (site CCTCAAGCTAT)” are within 0.2 log units of each other in “recombinant UMI read abundance (log10)” value: 0 for the first, 0.0107 for the second.

“CCTTAAGCATGGACCGGTTTTCCCGGTAATCCGTATTTGAT (site CCTGAAGCTAT)” and “CCTTAAGCATGGACCGGTTTTCCCGGTAATCCGTATTTGAT (site CCTTAAGCTAT)” are within 0.2 log units of each other in “recombinant UMI read abundance (log10)” value: 0 for the first, 0.00726 for the second.

“CCTTAGACATGGACCGGTTTTCCCGGTAATCCGTATTTGAG (site CATTAGACTCT)” and “CCTTAGACATGGACCGGTTTTCCCGGTAATCCGTATTTGAG (site CCTTAGACTCT)” are within 0.2 log units of each other in “recombinant UMI read abundance (log10)” value: 0.0191 for the first, 0.0167 for the second.

“CCTTAGACATGGACCGGTTTTCCCGGTAATCCGTATTTGAG (site CGTTAGACTCT)” and “CCTTAGACATGGACCGGTTTTCCCGGTAATCCGTATTTGAG (site CTTTAGACTCT)” are within 0.2 log units of each other in “recombinant UMI read abundance (log10)” value: 0.0159 for the first, 0.0107 for the second.

With “CCTTGTCCATGGACCGGTTTTCCCGGTAATCCGTATTTGCG (site CCTTGTCCTCG)” the “recombinant UMI read abundance (log10)” value was 0.00291.
